The source of these data is US8288379B2, “Thia-triaza-cyclopentazulenes” (Boehringer Ingelheim International GmbH, priority 2009, dated 2012).

The EC50 is the concentration at which the effect is half-maximal. As a reminder, the IC50 is the concentration that gives 50% inhibition. A low value points to greater potency in that assay.

The subject of test [1] is PC-3 cells. Put plainly: Inhibition of proliferation: CyQuant PC-3. Format: cell-based. To be noted: 72 h; PC-3 human prostate carcinoma cells, incubated with compounds for 3 days, CyQuant NF DNA dye. Summed up:
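PC-3 proliferation read by CyQuant NF: DNA-binding dye with membrane permeabilization reagent added after medium removal, 30-60 min incubation, fluorescence at Ex 485/Em 530 nm. Proliferation judged from cell counts of drug-treated versus untreated controls.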

The target of test [2] is T1, FRAP1 (mTOR) kinase (Homo sapiens, UniProt P42345).
T1 construct: purchased Invitrogen PV4753
Put plainly: Inhibition of mTOR-induced p-4E-BP1 phosphorylation (TR-FRET mTOR Activity Kit; Invitrogen). Format: biochemical. To be noted: 400 nM GFP-4E-BP1 substrate, ~150 ng/mL mTOR, one hour at room temperature. Summed up: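 LanthaScreen TR-FRET: mTOR with GFP-4E-BP1 substrate in HEPES pH 7.5 buffer with 10 mM MnCl2, compound preincubated 30 min at RT, then ATP added and reacted 1 h at 20-25 °C. Stopped with EDTA plus Tb-anti-p4E-BP1 (pThr46), 1 h; GFP/Tb emission ratio over a 16-point curve, sigmoidal fit for IC50.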
On the technique in general: In TR-FRET formats the signal depends on donor and acceptor labels being close together.

T1 sequence (P42345 1360-2549 limits assumed): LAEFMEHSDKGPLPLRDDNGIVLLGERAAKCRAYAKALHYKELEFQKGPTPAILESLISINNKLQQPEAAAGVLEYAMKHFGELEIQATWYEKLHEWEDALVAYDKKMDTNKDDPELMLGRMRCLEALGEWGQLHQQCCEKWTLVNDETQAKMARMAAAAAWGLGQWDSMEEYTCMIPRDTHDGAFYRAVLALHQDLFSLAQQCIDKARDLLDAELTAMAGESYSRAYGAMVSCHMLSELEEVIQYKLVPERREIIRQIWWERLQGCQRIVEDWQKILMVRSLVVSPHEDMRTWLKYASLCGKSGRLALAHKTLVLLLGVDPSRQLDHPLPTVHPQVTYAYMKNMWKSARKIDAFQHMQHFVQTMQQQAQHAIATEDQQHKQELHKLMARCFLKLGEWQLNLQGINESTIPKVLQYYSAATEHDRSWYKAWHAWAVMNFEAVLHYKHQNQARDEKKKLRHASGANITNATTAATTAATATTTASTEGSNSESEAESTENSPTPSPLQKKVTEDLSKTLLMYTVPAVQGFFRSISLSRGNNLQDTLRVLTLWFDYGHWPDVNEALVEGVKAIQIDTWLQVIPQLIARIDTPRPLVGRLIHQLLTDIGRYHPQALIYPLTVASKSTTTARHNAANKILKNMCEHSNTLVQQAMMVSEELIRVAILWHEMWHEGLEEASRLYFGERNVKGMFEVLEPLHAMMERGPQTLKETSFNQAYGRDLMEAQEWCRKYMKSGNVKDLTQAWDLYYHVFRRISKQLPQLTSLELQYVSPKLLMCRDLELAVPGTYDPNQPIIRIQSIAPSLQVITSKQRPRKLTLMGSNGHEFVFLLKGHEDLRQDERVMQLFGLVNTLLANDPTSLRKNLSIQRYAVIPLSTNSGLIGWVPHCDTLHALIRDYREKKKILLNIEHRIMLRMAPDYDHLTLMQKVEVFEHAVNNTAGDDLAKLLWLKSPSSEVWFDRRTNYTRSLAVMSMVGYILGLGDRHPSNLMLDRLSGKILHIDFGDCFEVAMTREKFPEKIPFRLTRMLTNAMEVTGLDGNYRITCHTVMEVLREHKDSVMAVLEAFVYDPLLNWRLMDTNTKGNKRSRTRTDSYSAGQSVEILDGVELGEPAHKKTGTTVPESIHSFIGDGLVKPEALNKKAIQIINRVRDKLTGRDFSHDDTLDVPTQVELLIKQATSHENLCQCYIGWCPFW

As for `COCCn1nc(-c2ccc(N)nc2)c2c1-c1sc(NC(C)=O)nc1CCC2` [Example B-132, N-[3-(6-Amino-pyridin-3-yl)-1-(2-methoxy-ethyl)-1,4,5,6-tetrahydro-9-thia-1,2,7-triaza-cyclopenta[e]azulen-8-yl]-acetamide], the EC50 in test [1] was 326 nM. For the same compound, in test [2], the IC50 came out at 52 nM.

Take `COCCC(=O)Nc1nc2c(s1)-c1c(c(-c3ccc(N)nc3)nn1C(C)C)CCC2` [Example B-133, N-[3-(6-Amino-pyridin-3-yl)-1-isopropyl-1,4,5,6-tetrahydro-9-thia-1,2,7-triaza-cyclopenta[e]azulen-8-yl]-3-methoxy-propionamide]: in test [1], the EC50 came out at 152 nM. In test [2], the IC50 came out at 65 nM.

For the compound `COCCC(=O)Nc1nc2c(s1)-c1c(c(-c3ccc(N)nc3)nn1CC(C)C)CCC2` [Example B-134], the EC50 in test [1] came out at 143 nM. Besides, the IC50 in test [2] is 60 nM.

As to `CC(C)n1nc(-c2ccc(N)nc2)c2c1-c1sc(NC(=O)CCCN(C)C)nc1CCC2` [Example B-135, N-[3-(6-Amino-pyridin-3-yl)-1-isopropyl-1,4,5,6-tetrahydro-9-thia-1,2,7-triaza-cyclopenta[e]azulen-8-yl]-4-dimethylamino-butyramide], in test [1], the EC50 is 79 nM. In test [2], this compound yielded an IC50 of 44 nM.

As to `CC(=O)Nc1nc2c(s1)-c1c(c(-c3ccc(C)nc3)nn1-c1cccnc1C)CCC2` [Example B-137, N-[1-(2-Methyl-pyridin-3-yl)-3-(6-methyl-pyridin-3-yl)-1,4,5,6-tetrahydro-9-thia-1,2,7-triaza-cyclopent[e]azulen-8-yl]acetamide], the EC50 in test [1] amounted to 1240 nM. Moreover, the IC50 in test [2] came to 422 nM.

`CC(=O)Nc1nc2c(s1)-c1c(c(-c3ccc(N)nc3)nn1-c1cccnc1C)CCC2` [Example B-138, N-[3-(6-Amino-pyridin-3-yl)-1-(2-methyl-pyridin-3-yl)-1,4,5,6-tetrahydro-9-thia-1,2,7-triaza-cyclopent[e]azulen-8-yl]acetamide]: the half-maximal effective concentration (EC50) in test [1] was 236 nM. The same compound showed a half-inhibitory concentration (IC50) in test [2] of 38 nM.

`CNc1ccc(-c2nn(-c3cccnc3C)c3c2CCCc2nc(NC(C)=O)sc2-3)cn1` [Example B-139, N-[3-(6-Methylamino-pyridin-3-yl)-1-(2-methyl-pyridin-3-yl)-1,4,5,6-tetrahydro-9-thia-1,2,7-triaza-cyclopent[e]azulen-8-yl]acetamide]: the EC50 in test [1] was determined as 71 nM. Moreover, the IC50 in test [2] is 21 nM.

In the case of `CNC(=O)Nc1nc2c(s1)-c1c(c(-c3ccc(NC)nc3)nn1-c1cccnc1C)CCC2` [Example B-143, 1-Methyl-3-[3-(6-methylamino-pyridin-3-yl)-1-(2-methyl-pyridin-3-yl)-1,4,5,6-tetrahydro-9-thia-1,2,7-triaza-cyclopent[e]azulen-8-yl]-urea], the EC50 in test [1] turned out to be 424 nM. In test [2], this compound returned an IC50 of 71 nM.

Consider `CNC(=O)Nc1nc2c(s1)-c1c(c(-c3ccc(N)nc3)nn1-c1ccccc1C)CCC2` [Example B-148, 1-[3-(6-Amino-pyridin-3-yl)-1-o-tolyl-1,4,5,6-tetrahydro-9-thia-1,2,7-triaza-cyclopenta[e]azulen-8-yl]-3-methyl-urea], for which the concentration for a half-maximal effect (EC50) in test [1] came out at 104 nM. Also, in test [2], the IC50 turned out to be 15 nM.

As to `COCCC(=O)Nc1nc2c(s1)-c1c(c(-c3ccc(N)nc3)nn1-c1ccccc1F)CCC2` [Example E-15, N-[3-(6-Amino-pyridin-3-yl)-1-(2-fluoro-phenyl)-1,4,5,6-tetrahydro-9-thia-1,2,7-triaza-cyclopenta[e]azulen-8-yl]-3-methoxy-propionamide], in test [1], the EC50 is 138 nM. The IC50 in test [2] stood at 47 nM.

Consider `CN(C)CCCC(=O)Nc1nc2c(s1)-c1c(c(-c3ccc(N)nc3)nn1-c1ccccc1F)CCC2` [Example E-16, N-[3-(6-Amino-pyridin-3-yl)-1-(2-fluoro-phenyl)-1,4,5,6-tetrahydro-9-thia-1,2,7-triaza-cyclopenta[e]azulen-8-yl]-4-dimethylamino-butyramide], for which, in test [1], the EC50 turned out to be 32 nM. In test [2], this compound registered an IC50 of 13 nM.

As for `CN(C)CC(=O)Nc1nc2c(s1)-c1c(c(-c3ccc(N)nc3)nn1-c1ccccc1F)CCC2` [Example E-17, N-[3-(6-Amino-pyridin-3-yl)-1-(2-fluoro-phenyl)-1,4,5,6-tetrahydro-9-thia-1,2,7-triaza-cyclopenta[e]azulen-8-yl]-2-dimethylamino-acetamide], the EC50 in test [1] was 171 nM. The same compound had a half-inhibitory concentration (IC50) in test [2] of 65 nM.

Turning to `COCC(=O)Nc1nc2c(s1)-c1c(c(-c3ccc(N)nc3)nn1-c1ccccc1F)CCC2` [Example E-18, N-[3-(6-Amino-pyridin-3-yl)-1-(2-fluoro-phenyl)-1,4,5,6-tetrahydro-9-thia-1,2,7-triaza-cyclopenta[e]azulen-8-yl]-2-methoxy-acetamide], in test [1], the concentration for a half-maximal effect (EC50) worked out at 87 nM. Besides, the IC50 in test [2] is 59 nM.
